Source: US20250360091A1, “COMBINATION OF SGLT2 INHIBITOR AND MENTHOL AND USE THEREOF IN TREATMENT OF HEART DISEASE” (EAST CHINA UNIVERSITY OF SCIENCE AND TECHNOLOGY, priority 2023, published 2025)

Test system: H9c2 cells
Assay: GD-induced injury: LDH release and crystal violet staining (Example 2)
Format: cell-based, Rat
Settings: empagliflozin 100 μM and 200 μM; GD 48 h
Procedure: To further verify the anti-heart failure efficacy of the drug composition, H9c2 cells were seeded into 24-well plates. After the cells covered the bottom of the dish, the high-glucose DMEM was removed, the plate was washed once with PBS, and empagliflozin alone and different concentrations of the drug composition were prepared with sugar-free and serum-free DMEM medium, and added to the cells for glucose deprivation treatment. For the GD group, sugar-free and serum-free DMEM medium without drugs was added. For the NG group, high-glucose DMEM containing serum was continued to be added for culture. After 48 hours of glucose deprivation treatment, 50 μL of culture medium was taken to a 96-well plate, and the release of LDH in the culture medium was detected using an LDH detection kit. The culture medium was removed, the cells were placed on ice, and washed twice with pre-cooled PBS for 3 to 5 minutes each time. The cells were fixed with pre-cooled methanol at −20° C. for 10 minutes. Methanol was removed and the cells were returned to room temperature. […] The cells were placed in a 37° C. oven for drying, photographed under a microscope, and the staining was quantified by Image J. The larger the purple area, the more cells survived, and the more LDH was released, which indicated more cell damage. […]

## OC[C@H]1O[C@@H](c2ccc(Cl)c(Cc3ccc(O[C@H]4CCOC4)cc3)c2)[C@H](O)[C@@H](O)[C@@H]1O [empagliflozin]
  cell survival rate (crystal violet purple area, LDH release): significantly increases the cell survival rate in a dose-dependent manner
